ChEMBL document CHEMBL1131855, “Nonpeptidic SH2 inhibitors of the tyrosine kinase ZAP-70” (Bioorg Med Chem Lett, 1999)

Key:
[1] = molecular target: Proto-oncogene tyrosine-protein kinase Src (Homo sapiens, UniProt P12931); assay: Affinity for Src protein tyrosine kinase
[2] = molecular target: Tyrosine-protein kinase SYK (Homo sapiens, UniProt P43405); assay: Affinity for Syk protein tyrosine kinase
[3] = molecular target: T1, Tyrosine-protein kinase ZAP-70 (Homo sapiens, UniProt P43403); assay: Affinity for Zeta-chain (TCR) associated protein kinase 70 kDa (ZAP70)
T1 sequence (P43403 whole entry): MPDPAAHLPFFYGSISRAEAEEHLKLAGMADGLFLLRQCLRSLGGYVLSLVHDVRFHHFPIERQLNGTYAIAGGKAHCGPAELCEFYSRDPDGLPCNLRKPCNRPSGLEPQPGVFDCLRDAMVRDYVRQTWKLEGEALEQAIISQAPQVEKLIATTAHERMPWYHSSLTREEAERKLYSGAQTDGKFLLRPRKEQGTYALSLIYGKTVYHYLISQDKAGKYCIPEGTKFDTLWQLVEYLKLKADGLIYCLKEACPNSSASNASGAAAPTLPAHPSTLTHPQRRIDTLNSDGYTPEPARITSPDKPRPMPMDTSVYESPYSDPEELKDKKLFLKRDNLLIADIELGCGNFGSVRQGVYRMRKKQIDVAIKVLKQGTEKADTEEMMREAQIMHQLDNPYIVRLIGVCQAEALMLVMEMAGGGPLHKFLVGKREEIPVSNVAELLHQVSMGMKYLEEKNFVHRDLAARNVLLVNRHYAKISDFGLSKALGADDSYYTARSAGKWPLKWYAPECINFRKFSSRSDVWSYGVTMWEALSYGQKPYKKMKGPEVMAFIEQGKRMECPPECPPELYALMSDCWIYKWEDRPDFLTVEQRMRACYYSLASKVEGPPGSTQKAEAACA

Proto-oncogene tyrosine-protein kinase Src, sequence (P12931 2-536 limits assumed): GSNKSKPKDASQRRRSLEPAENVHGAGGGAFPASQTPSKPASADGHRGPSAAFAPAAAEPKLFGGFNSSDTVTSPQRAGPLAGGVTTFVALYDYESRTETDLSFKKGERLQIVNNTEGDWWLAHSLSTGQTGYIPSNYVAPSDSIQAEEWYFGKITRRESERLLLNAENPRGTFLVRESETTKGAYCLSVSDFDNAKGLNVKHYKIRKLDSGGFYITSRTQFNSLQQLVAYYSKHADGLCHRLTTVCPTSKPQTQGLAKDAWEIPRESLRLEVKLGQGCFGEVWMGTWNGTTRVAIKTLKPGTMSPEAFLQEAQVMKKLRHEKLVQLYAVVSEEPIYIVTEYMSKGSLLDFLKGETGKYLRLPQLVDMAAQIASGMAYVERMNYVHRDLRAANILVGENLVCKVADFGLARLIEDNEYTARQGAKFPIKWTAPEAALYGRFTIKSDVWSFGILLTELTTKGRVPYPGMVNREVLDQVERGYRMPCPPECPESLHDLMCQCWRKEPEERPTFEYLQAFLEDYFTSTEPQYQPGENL

Row | Compound | IC50 [1] [µM] | IC50 [2] [µM] | IC50 [3] [µM]
1 | CC(=O)N[C@@H](Cc1ccc(OP(=O)(O)O)cc1)C(=O)N[C@@H](C)c1nc(Cc2ccc(Cl)c(Cl)c2)no1 | 210 | – | –
2 | C[C@H](NC(=O)Nc1cccc2cc(OP(=O)(O)O)ccc12)c1nc(Cc2ccc(Cl)c(Cl)c2)no1 | 198 | 310 | –
3 | C[C@H](NC(=O)[C@H](Cc1ccc(OP(=O)(O)O)cc1)CS(=O)(=O)C(C)(C)C)c1nc(Cc2ccc(C(F)(F)F)cc2)no1 | 205 | > 500 | –
4 | C[C@H](NC(=O)CCc1ccc(OP(=O)(O)O)cc1)c1nc(Cc2ccc(Cl)c(Cl)c2)no1 | 459 | > 500 | 198

Now those with a lower IC50 [1], led by results:

Row | IC50 [1] [µM] | IC50 [2] [µM] | IC50 [3] [µM] | Compound
5 | 102 | > 500 | – | C[C@H](NC(=O)[C@@H](CC(=O)O)Cc1ccc(OP(=O)(O)O)cc1)c1nc(Cc2ccc(C(F)(F)F)cc2)no1
6 | 81 | 434 | – | C[C@H](NC(=O)c1cc2cc(OP(=O)(O)O)ccc2[nH]1)c1nc(Cc2ccc(Cl)c(Cl)c2)no1
7 | 72 | – | – | CC(=O)N[C@@H](Cc1ccc(OP(=O)(O)O)cc1)C(=O)N[C@@H](C)c1nc(Cc2ccc(C(F)(F)F)cc2)no1
8 | 54 | > 500 | – | O=C(O)C[C@@H](Cc1ccc(OP(=O)(O)O)cc1)C(=O)N[C@@H](CO)c1nc(Cc2ccc(Cl)c(Cl)c2)no1
9 | 53 | > 500 | – | C[C@H](NC(=O)[C@@H](CC(=O)O)Cc1ccc(OP(=O)(O)O)cc1)c1nc(Cc2ccc(Cl)c(Cl)c2)no1
